Assays:
H1703 cells = experiment: H1703 xenograft in athymic NCr-nu/nu mice, tumor weights (Example 10); assay type: in vivo; details: 8 micromols/kg i.v., three times a week for three weeks
Description: H1703 cells are harvested at 80% confluence, washed with PBS, and suspended in PBS. The cells are injected at 5×10^6 s.c. into a flank of 7-week-old female athymic NCr-nu/nu mice (Charles River). […] Animals are treated three times a week for three weeks with i.v. tail vein injections of either vehicle (2.25% P-123 in PBS) or 1 or 2 (6 micromols/kg in the vehicle) or 6 (8 micromols/kg). Body weights are taken before each drug injection. Animals are sacrificed two hours after the last drug injection and the tumors are excised and weighed. There are 13-15 mice/group at termination. The non-parametric Mann-Whitney test is utilized for statistical comparisons of tumor weights.

[1] = Rate of reaction with 4 mM glutathione (stability study, HPLC); assay type: physicochemical; details: for t½ (min) Mean (SE): 4 mM glutathione (GSH), aqueous pH 7.4 phosphate buffered saline, 37° C.; for half-life upon treatment with glutathione (GSH): in comparison with that of JS-K
Description: 490 μL of 2.25% Pluronic P123 in PBS is aliquoted into glass HPLC vials and maintained at 50° C. To this solution, 10 μL of 50 mM of compounds 6, 7, 9, and 11 in DMSO is added and maintained at 50° C. for 10 min. A glutathione stock solution (40 mM) is prepared in 0.1 M phosphate buffer pH 7.4. To 800 μL of 0.1 M phosphate buffer in a glass HPLC vial, 100 μL of glutathione stock solution and 100 μL of formulated prodrug are added. The disappearance of the compound is monitored using an Agilent 1100 series HPLC fitted with a C-18 reverse phase column (Phenomenex Luna 250×4.60 mm) operating at 300 nm and run isocratically with acetonitrile:water (75:25).

H1373 = experiment: CellTiter 96 MTT cell proliferation assay (Example 9); assay type: cell-based, human
Description: (§1) Cell lines derived from human non-small cell lung cancers are obtained from American Type Culture Collection (ATCC, Manassas, Va.), and are designated by their NCI numbers. Cells are maintained in RPMI 1640 medium (Gibco, Invitrogen, Carlsbad, Calif.), supplemented with 10% fetal calf serum (Gemini Bio-Products, Sacramento, Calif.), 100 U/mL penicillin/streptomycin, and 2 mM glutamine at 37° C. and 5% CO2.
(§2) For proliferation assays cells are seeded at 2×10^4/well in 96-well plates, allowed to adhere for 24 hrs, and then are treated with the drug or DMSO as a control for 48 hours. […] Compounds are prepared as 10 mM stock solution in dimethyl sulfoxide (Sigma, St. Louis, Mo.). Increasing drug concentrations in 10 μL of phosphate-buffered saline (PBS) are added to 100 μL of the culture medium and incubated at 37° C. for 72 h. The CellTiter 96 non-radioactive cell proliferation assay (MTT assay, Promega, Madison, Wis.), is performed according to the manufacturer's protocol. Each compound concentration is represented in six repeats, and the screening is performed as at least two independent experiments. IC50 values are calculated using Sigma Plot software (Systat Software).

H2122 = experiment: as above; assay type: cell-based, human
Description: as §1, §2

H441 = experiment: as above; assay type: cell-based, human
Description: as §1, §2

H1944 = experiment: as above; assay type: cell-based, human
Description: as §1, §2

H1703 = experiment: as above; assay type: cell-based, human
Description: as §1, §2

[2] = test system: lung adenocarcinoma cells (cell line H441); experiment: Proliferation of lung adenocarcinoma cells, JS-59-4 with olaparib (FIG. 2); assay type: cell-based, human; details: combination with the PARP inhibitor olaparib, in comparison to JS-59-4 alone
Description: FIG. 2 is a bar graph showing a synergistic effect of the administration of JS-59-4 with the PARP inhibitor olaparib in the inhibition of proliferation of lung adenocarcinoma cells (cell line H441). The white bar represents the control (i.e., no treatment). The light gray bar represents the administration of JS-59-4 alone (0.75 μM). The dark gray bar represents the administration of JS-59-4 alone (1 μM). The diagonally hatched bar represents the administration of olaparib alone (5 μM). The cross hatched bar represents the administration of olaparib alone (10 μM). The light gray diagonally gray bar represents the co-administration of JS-59-4 (0.75 μM) and olaparib (5 μM). The dark gray diagonally hatched bar represents the co-administration of JS-59-4 (1 μM) and olaparib (5 μM). The light gray cross hatched gray bar represents the co-administration of JS-59-4 (0.75 μM) and olaparib (10 μM). The dark gray cross hatched bar represents the co-administration of JS-59-4 (1 μM) and olaparib (10 μM).

H1703 cell line = experiment: Tiron protection against JS-K toxicity; assay type: cell-based, human
SAPK/JNK and p38 = experiment: Tiron pre-treatment before JS-36-25, stress kinase phosphorylation; assay type: cell-based, human; details: 10 mM Tiron 1 hour, then 30 minutes 1 μM JS-36-25
Description: Immunoblotting: For protein immunoblotting the cells are harvested in lysis buffer (25 mM Hepes buffer containing 150 mM NaCl, 10 mM MgCl2, 1% Nonidet P40, 0.25% sodium deoxycholate, 10% glycerol, 2.5 mM EDTA, supplemented with Complete proteinase inhibitors cocktail (Behringer). Cell extracts are resolved by SDS-polyacrylamide gel electrophoresis (4-12% Bis-Tris gels or 3-8% Tris-acetate gels, Invitrogen Life Technologies, Carlsbad, Calif.) then immunoblotted to PVDF membrane (Invitrogen). Antibodies to phospho-ATM, Phospho-ATR, cleaved caspases 3 and 7, phospho-SAPK/JNK and SAPK/JNK, phospho-ATF2, phospho-p38 and p38, phospho-c-jun and c-jun, and PARP are purchased from Cell Signaling Technology (Danvers, Mass.). Anti-ATF3 polyclonal antibodies are from Santa Cruz Biotechnology (Santa Cruz, Calif.). […] The cells are pre-treated for 1 hour with 10 mM Tiron, followed by 30 minutes incubation with 1 μM of JS-36-25. In the Tiron-treated cells phosphorylation of both SAPK/JNK and p38 by JS-36-25 is diminished in comparison with JS-36-25-only treated cells (FIG. 3C).

SMILES	H1703 tumor growth in vivo (H1703 cells)	t½ (min) Mean (SE) [1]	IC50 (H1373) [µM]	IC50 (H2122) [µM]	IC50 (H441) [µM]	IC50 (H1944) [µM]	IC50 (H1703) [µM]	half-life upon treatment with glutathione (GSH) [1]	antiproliferative activity of the combination [2]	effect on JS-K toxicity (H1703 cell line)	SAPK/JNK and p38 phosphorylation by JS-36-25 (SAPK/JNK and p38)
CCOC(=O)N1CCN(/[N+]([O-])=N/Oc2cc(C)c([N+](=O)[O-])cc2[N+](=O)[O-])CC1 [Compound 6, O^2-(2,4-dinitrophenyl-5-methyl) 1-[(4-ethoxycarbonyl)piperazin-1-yl]diazen-1-ium-1,2-diolate]	did not result in reduction	71.5 (4.3) min	1.86	7	1.61	> 10	0.97				
CCOC(=O)N1CCCN(/[N+]([O-])=N/Oc2cc(C)c([N+](=O)[O-])cc2[N+](=O)[O-])CC1 [Compound 7, O^2-(2,4-dinitrophenyl-5-methyl) 1-[(4-ethoxycarbonyl)homopiperazin-1-yl]diazen-1-ium-1,2-diolate]		25.7 (1.0) min	3	10	2.02	> 10	1.66				
CCOC(=O)N1CCN(/[N+]([O-])=N/Oc2cc(OC)c([N+](=O)[O-])cc2[N+](=O)[O-])CC1 [Compound 9, O^2-(2,4-dinitrophenyl-5-methoxy) 1-[(4-ethoxycarbonyl)piperazin-1-yl]diazen-1-ium-1,2-diolate]		38.6 (2.8) min	2.1	5.78	2.5	> 10	1.57				
CCOC(=O)N1CCCN(/[N+]([O-])=N/Oc2cc(OC)c([N+](=O)[O-])cc2[N+](=O)[O-])CC1 [Compound 11, O^2-(2,4-dinitrophenyl-5-methoxy) 1-[(4-ethoxycarbonyl)homopiperazin-1-yl]diazen-1-ium-1,2-diolate]		59.6 (4.2) min	3.08	10	3.15	> 10	1.82				
CCOC(=O)N1CCN(/[N+]([O-])=N/Oc2ccc([N+](=O)[O-])cc2C#N)CC1 [JS-59-4]								prolonged half-life	significantly enhanced antiproliferative activity		
CCOC(=O)N1CCN(/[N+]([O-])=N/Oc2ccc(C#N)cc2[N+](=O)[O-])CC1 [JS-59-131]								prolonged half-life			
O=S(=O)(O)c1cc(O)c(O)c(S(=O)(=O)O)c1 [Tiron]										protective effect	significantly reduces

— US9205091B2, “Diazeniumdiolated compounds, pharmaceutical compositions, and method of treating cancer” (The United States of America, as represented by the …, priority 2009, dated 2015)
